Consider 24 compounds from ChEMBL document CHEMBL3217673, “Synthesis of cyanine dyes and investigation of their in vitro antiprotozoal activities” (Medchemcomm, 2012).

As usually defined, the IC50 is the concentration needed to halve the response being measured. A low value points to greater potency in that assay.

Series [1] relates to Trypanosoma cruzi. In words: Antiprotozoal activity against Trypanosoma cruzi Tulahuen C2C4. Format: functional, organism-based.
Series [2] deals with Trypanosoma brucei rhodesiense. Description: Antiprotozoal activity against Trypanosoma brucei rhodesiense STIB900. Format: functional, organism-based.
Series [3] concerns Plasmodium falciparum. Description: Antiprotozoal activity against chloroquine and pyrimethamine-resistant Plasmodium falciparum K1. Format: functional, organism-based.
The nature of series [4]: Selectivity index, ratio of IC50 for rat L6 cells to IC50 for chloroquine and pyrimethamine-resistant Plasmodium falciparum K1. Format: toxicity, cell-based. The conditions noted are these: read-out: Ratio IC50.
The test system of series [5] is Leishmania donovani. In words: Antiprotozoal activity against Leishmania donovani MHOMET-67/L82. In kind it is functional, organism-based.
Series [6] in a line: Selectivity index, ratio of IC50 for rat L6 cells to IC50 for Leishmania donovani MHOMET-67/L82. Format: toxicity, cell-based. Particulars: read-out: Ratio IC50.
Series [7] concerns L6. In words: Cytotoxicity against rat L6 cells. Format: cell-based.
The nature of series [8]: Selectivity index, ratio of IC50 for rat L6 cells to IC50 for Trypanosoma brucei rhodesiense STIB900. Format: toxicity, cell-based. The conditions noted are these: read-out: Ratio IC50.
Series [9] is described as follows: Selectivity index, ratio of IC50 for rat L6 cells to IC50 for Trypanosoma cruzi Tulahuen C2C4. In kind it is toxicity, cell-based. The conditions noted are these: read-out: Ratio IC50.

Consider `CN1/C(=C/C=C/c2oc3ccccc3[n+]2C)Oc2ccc(Cl)cc21`, for which the IC50 in series [1] stood at 7750 nM; in series [2], 5840 nM; in series [3] it was 925 nM; in series [5], 1460 nM; in series [7], 23900 nM. The selectivity ratio in series [4] was determined as 25.8; in [6], 16.3; in series [8] it was 4.1; in series [9] it was 3.1.

As to `CN1/C(=C/C=C/c2sc3ccccc3[n+]2C)Sc2ccc(F)cc21`, the IC50 is 394 nM in series [2], 5 nM in [3], 79 nM in series [5] and 483 nM in series [7]. The selectivity ratio stood at 94.5 in series [4], 6.1 in series [6] and 1.2 in series [8].

With `Cn1/c(=N/C=C/c2sc3ccc(F)cc3[n+]2C)sc2ccccc21`, the IC50 in [1] amounted to 648 nM; in series [2] it was 370 nM; in series [3] it was 38 nM; in series [5], 31 nM; in series [7], 5840 nM. The selectivity ratio was 153 in series [4], 191 in [6], 15.8 in [8] and 9 in series [9].

Regarding `CN1/C(=C/C=C/c2sc3ccc(Cl)cc3[n+]2C)Sc2ccc(Cl)cc21`, the IC50 in [1] turned out to be 7080 nM; in series [2] it was 18 nM; in series [3] it was 2 nM; in series [5] it was 9 nM; in [7], 1080 nM. In addition, the selectivity ratio in series [4] was determined as 477; in series [6] it was 119; in series [8], 59.6; in series [9], 0.2.

For the compound `CCN1/C(=C/C=C/c2sc3ccc(F)cc3[n+]2CC)Sc2ccc(F)cc21`, the IC50 is 1170 nM in [1]; 769 nM in [2]; 2 nM in series [3]; 28 nM in series [5]; 849 nM in [7]. Further, the selectivity ratio came to 371 in [4], 30.9 in [6], 1.1 in series [8] and 0.7 in series [9].

`Cc1ccc2c(c1)N(C)/C(=C/C=C/c1oc3ccc(C)cc3[n+]1C)O2`: the IC50 in series [2] was 54 nM; in series [3], 14 nM; in series [5], 5 nM; in series [7], 230 nM. The selectivity ratio came out at 17 in series [4], 42.5 in series [6] and 4.3 in series [8].

With `CN1/C(=C/C=C/c2oc3ccccc3[n+]2C)Sc2ccccc21`, the IC50 in series [1] was 11 nM; in series [2] it was 185 nM; in series [3] it was 2 nM; in [5] it was 90 nM; in [7] it was 849 nM. Besides, the selectivity ratio came to 303 in series [4], 9.5 in series [6], 4.6 in series [8] and 75.8 in [9].

On to `CCN1/C(=C/C=C/c2oc3ccc(C)cc3[n+]2C)Sc2ccc(F)cc21`, for which the IC50 in [1] was 27 nM; in series [2], 285 nM; in series [3] it was 10 nM; in series [5], 15 nM; in series [7], 655 nM. Moreover, the selectivity ratio turned out to be 66 in series [4], 44 in series [6], 2.3 in series [8] and 24 in [9].

Take `CN1/C(=C/C=C/c2sc3ccccc3[n+]2C)Sc2ccccc21`: the IC50 came to 5 nM in [1]; 115 nM in series [2]; 3 nM in series [3]; 5 nM in series [5]; 338 nM in series [7]. The selectivity ratio in series [4] was found to be 126; in [6], 63; in series [8] it was 2.9; in series [9], 63.

Regarding `CN1/C(=C/C=C/C=C/c2sc3ccc(F)cc3[n+]2C)Sc2ccc(F)cc21`, the IC50 in series [1] was 1960 nM; in [2], 2 nM; in [3], 228 nM; in series [5], 188 nM; in [7], 2080 nM. The selectivity ratio is 9.2 in series [4], 11.1 in series [6], 1190 in series [8] and 1.1 in series [9].

Consider `Cc1ccc2oc(/C=C/C=C3\Sc4ccc(F)cc4N3C)[n+](C)c2c1`, for which the IC50 worked out at 8 nM in series [1]; 180 nM in series [2]; 10 nM in series [3]; 21 nM in series [5]; 1490 nM in series [7]. Also, the selectivity ratio in [4] stood at 145; in series [6], 72.6; in [8], 8.3; in [9] it was 194.

For `Cn1/c(=N\N/C=C/c2sc3ccccc3[n+]2C)sc2ccccc21`, the IC50 in series [1] worked out at 12400 nM; in [2], 3830 nM; in [3], 7020 nM; in [5], 13100 nM; in series [7], 21100 nM. Further, the selectivity ratio is 3 in series [4], 1.6 in series [6], 5.5 in series [8] and 1.7 in series [9].

As to `CN1/C(=C/C=C/C=C/c2sc3ccccc3[n+]2C)Sc2ccccc21`, the IC50 in [1] turned out to be 60 nM; in series [2], 13 nM; in series [3] it was 133 nM; in series [5], 140 nM; in series [7], 1790 nM. The selectivity ratio worked out at 13.5 in series [4], 12.7 in series [6], 137 in series [8] and 29.9 in series [9].

As for `Cc1ccc2c(c1)N(C)/C(=C/C=C/c1oc3ccc(C)cc3[n+]1C)S2`, the IC50 in series [2] is 39 nM; in series [3], 8 nM; in [5] it was 10 nM; in [7], 94 nM. In addition, the selectivity ratio in series [4] worked out at 12; in [6] it was 9; in series [8], 2.4.

On to `CN1/C(=C/C=C/C=C/c2sc3ccc(Cl)cc3[n+]2C)Sc2ccc(Cl)cc21`, for which the IC50 amounted to 2630 nM in series [1]; 8 nM in series [2]; 63 nM in series [3]; 75 nM in series [5]; 876 nM in series [7]. Besides, the selectivity ratio in series [4] was found to be 13.9; in series [6], 11.8; in [8] it was 106; in series [9] it was 0.3.

As to `Cn1/c(=N/C=C/c2sc3ccc(Cl)cc3[n+]2C)sc2ccccc21`, the IC50 in [1] turned out to be 509 nM; in series [2] it was 10 nM; in series [3], 5 nM; in [5], 7 nM; in [7] it was 649 nM. The selectivity ratio in series [4] stood at 132; in [6], 88.3; in [8] it was 66.3; in [9] it was 1.3.

As to `Cn1/c(=N/C=C/c2sc3ccccc3[n+]2C)sc2ccccc21`, the IC50 in series [1] was 16 nM; in series [2], 21 nM; in [3], 8 nM; in [5], 11 nM; in series [7], 2730 nM. Moreover, the selectivity ratio was 340 in [4], 255 in [6], 128 in [8] and 170 in series [9].

Take `Cc1ccc2oc(/C=C/C=C3\Sc4ccc(Cl)cc4N3C)[n+](C)c2c1`: the IC50 in series [1] stood at 109 nM; in [2], 62 nM; in series [3], 20 nM; in series [5], 89 nM; in [7], 1180 nM. Also, the selectivity ratio in series [4] was found to be 60; in series [6], 13.3; in series [8] it was 19.2; in series [9] it was 10.9.

As to `CN1/C(=C/C=C/c2oc3ccc(Cl)cc3[n+]2C)Sc2ccccc21`, the IC50 in [1] was found to be 284 nM; in series [2], 13 nM; in series [3], 20 nM; in series [5], 61 nM; in [7], 3400 nM. Moreover, the selectivity ratio came to 166 in [4], 55.4 in [6], 266 in series [8] and 12 in series [9].

For `Cc1ccc2oc(/C=C/C=C3\Sc4ccccc4N3C)[n+](C)c2c1`, the IC50 in [2] came to 496 nM; in [3] it was 16 nM; in series [5], 40 nM; in [7] it was 121 nM. The selectivity ratio in series [4] turned out to be 7.5; in series [6] it was 3; in series [8], 0.2.

As to `CN1/C(=C/C=C/c2oc3ccccc3[n+]2C)Sc2ccc(F)cc21`, the IC50 stood at 186 nM in [1]; 867 nM in series [2]; 5 nM in [3]; 67 nM in series [5]; 1070 nM in series [7]. Further, the selectivity ratio was 201 in series [4], 16.1 in [6], 1.2 in [8] and 5.7 in series [9].

With `Cn1/c(=N\N/C=C/c2sc3ccc(Cl)cc3[n+]2C)sc2ccccc21`, the IC50 in series [1] amounted to 11400 nM; in series [2], 2970 nM; in series [3], 2600 nM; in series [5], 8340 nM; in series [7], 10800 nM. Moreover, the selectivity ratio was 4.2 in series [4], 1.3 in series [6], 3.6 in series [8] and 1 in [9].

`CCN1/C(=C/C=C/c2sc3ccccc3[n+]2C)Sc2ccc(F)cc21`: the IC50 in series [2] is 452 nM; in [3], 7 nM; in series [5], 111 nM; in series [7] it was 240 nM. The values for the selectivity ratio in series [4], in series [6] and in [8] were 32.3, 2.2 and 0.5, respectively.

In the case of `Cc1ccc2c(c1)N(C)/C(=C/C=C/c1oc3ccccc3[n+]1C)S2`, the IC50 in series [2] stood at 113 nM; in series [3], 11 nM; in series [5] it was 14 nM; in series [7], 146 nM. In addition, the selectivity ratio in series [4] was 13.5; in series [6] it was 10.8; in series [8], 1.3.
